Experimental data taken from ChEMBL document CHEMBL2429771, “Drug discovery for neglected diseases: molecular target-based and phenotypic approaches” (J Med Chem, 2013).

Experiments:
Trypanosoma brucei [1] = assay: Inhibition of blood stream form of Trypanosoma brucei overexpressing trypanothione synthase after 72 hrs; format: functional, organism-based
[2] = Inhibition of Trypanosoma brucei trypanothione synthase
Trypanosoma brucei [3] = assay: Inhibition of wild type blood stream form of Trypanosoma brucei expressing trypanothione synthase after 72 hrs; format: functional, organism-based
Trypanosoma brucei [4] = assay: Inhibition of blood stream form of trypanothione synthase single knockout Trypanosoma brucei after 72 hrs; format: functional, organism-based
[5] = Inhibition of Leishmania mexicana CRK3/CYC6
CDK2/Cyclin A2 = CDK2/Cyclin A2 (Homo sapiens, UniProt P24941); assay: Inhibition of human CDK2/Cyclin A; format: protein-complex assay
[6] = Inhibition of Trypanosoma brucei PTR1 by spectrophotometry; conditions: read-out: Ki(app)

| SMILES | IC50 [5] | IC50 (CDK2/Cyclin A2) | Ki [6] | further results |
| --- | --- | --- | --- | --- |
| CN(C)CCCNC(=O)Cn1nc(-c2cccc(F)c2)c2ccccc21 |  |  |  | EC50 (Trypanosoma brucei [1]): 23 µM; IC50 [2]: 0.045 µM; EC50 (Trypanosoma brucei [3]): 7 µM; EC50 (Trypanosoma brucei [4]): 1.2 µM |
| Nc1nc2ccc(Cl)cc2[nH]1 |  |  | 11 µM |  |
| Nc1nc2ccccc2[nH]1 |  |  | 228 µM |  |

The next lines start with results.

| IC50 [5] | IC50 (CDK2/Cyclin A2) | Ki [6] | SMILES | further results |
| --- | --- | --- | --- | --- |
| 0.34 µM | > 100 µM |  | O=C(Nc1cc(-c2ccc(Cl)cc2)n[nH]1)C1CCCCC1 |  |
| < 0.005 µM | > 100 µM |  | Cc1cccc(-c2ccc3nc(NC(=O)CCC4CCCC4)nn3c2)c1 |  |
| 0.04 µM | > 100 µM |  | COc1cccc(NC(=O)NC2=CC(=O)CC(C)(C)C2)c1 |  |
